For one data set, the target named is PfCRT^Dd2 (Plasmodium falciparum, UniProt Q9N623, A220S/I356T/K76T/M74I/N326S/N75E/Q271E/R371I). In words: Drug uptake assay, X. laevis oocytes expressing PfCRT^Dd2. It counts as cell-based. The conditions noted are these: for PfCRTDd2 transport activity pH 6.0: 50 µM external drug, 1 h, independent samples (means in Fig 4c). How it is done: (§1) Oocytes were obtained as described previously. Briefly, adult (>2 years old) female X. laevis frogs (NASCO) were anesthetized in a cooled solution of ethyl 3-amino benzoate methanesulfonate (0.1%, w/v), followed by a surgical removal of parts of the ovary. The ovary lobes were carefully dissected and small pieces of oocytes were incubated in Ca^2+-free ND96 buffer (96 mM NaCl, 2 mM KCl, 1 mM MgCl2 buffered with 5 mM HEPES/NaOH, pH 7.5) supplemented with collagenase D (0.1%, w/v; Roche), BSA (0.5%, w/v), and 9 mm Na2HPO4 at 18 °C for 14-16 h while gentle shaking. After incubation, the oocytes were carefully washed several times with ND96 buffer (96 mM NaCl, 2 mM KCl, 1.8 mM CaCl2, 1 mM MgCl2 buffered with 5 mM HEPES/NaOH, pH 7.5) supplemented with 100 mg l^−1 gentamycin). Defolliculated and healthy-looking stage V-VI oocytes were manually selected for RNA microinjection. The RNA was generated as following: The codon-optimized sequences of PfCRT variants were cloned into the pSP64T expression vector. After vector linearization using the restriction endonucleases BamHI or SalI (New England Biolabs), transcription was performed using the in vitro SP6 mMessage mMachine Kit (Ambion)[34]. The obtained RNA was kept at −80 °C and diluted with nuclease-free water to a concentration of 0.6 μg μl^−1. Precision-bore glass capillary tubes (3.5-inch glass capillaries; Drummond Scientific Co.) were pulled on a vertical puller (P-87 Flaming/Brown micropipette puller, Sutter Instrument Co.), graduated, and placed on a microinjector (Nanoject II Auto-Nanoliter Injector, Drummond Scientific Co.). 50 nl of nuclease-free water alone (control oocytes) or 50 nl of 0.6 μg μl^−1 RNA were injected under stereomicroscopic control. Injected oocytes were incubated for 46–72 h at 18 °C with twice-daily buffer changes before usage in experiments.
PfCRT^Dd2, sequence (Q9N623 whole entry A220S/I356T/K76T/M74I/N326S/N75E/Q271E/R371I): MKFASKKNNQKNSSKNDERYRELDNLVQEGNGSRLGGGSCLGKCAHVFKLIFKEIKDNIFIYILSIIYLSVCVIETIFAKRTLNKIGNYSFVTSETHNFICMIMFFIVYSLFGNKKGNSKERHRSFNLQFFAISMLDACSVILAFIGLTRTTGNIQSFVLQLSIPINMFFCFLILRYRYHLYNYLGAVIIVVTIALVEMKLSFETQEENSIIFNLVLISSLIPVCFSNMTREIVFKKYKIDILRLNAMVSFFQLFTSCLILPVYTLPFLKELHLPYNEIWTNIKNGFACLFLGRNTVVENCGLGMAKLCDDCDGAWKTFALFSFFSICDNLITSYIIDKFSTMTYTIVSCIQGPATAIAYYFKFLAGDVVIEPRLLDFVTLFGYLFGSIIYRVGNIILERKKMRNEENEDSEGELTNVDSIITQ
Drug uptake assays were performed as described previously[21],[22],[24],[34]. […] The direction of radio-labeled drug transport is here from the mostly acidic extracellular solution (pH 4.5 or 6.0, as indicated) into the oocyte cytosol (pH ∼ 7.2), which corresponds to the efflux of drug from the acidic digestive vacuole (pH 5.2) into the parasite cytoplasm (pH 7.2). The topology of PfCRT in the oolemma is such that both the N- and C-terminus face the extracellular milieu[3],[22]. In the parasite, the N- and C-terminus face the lumen of the digestive vacuole. […] For determination of the amount of drug uptake for each oocyte, the reaction medium was removed and the oocytes were washed three times with 2 ml of ice-cold ND96 buffer. Each oocyte was individually transferred to a scintillation vial containing 5% sodium dodecyl sulfate (200 μl) for lysis. […] Oocytes that were injected with water instead of RNA were analyzed in parallel, representing the uptake of a drug by diffusion and/or endogenous permeation pathways. The resulting value represents the “background“ level of drug accumulation in oocytes (in-depth discussion in[22]). The specific PfCRT-mediated uptake was determined by subtracting the corresponding background value measured in water-injected oocytes from that of PfCRT-expressing oocytes. In all cases, at least three separate experiments were performed on oocytes from different frogs (biological replicate), and for each condition in an experiment, measurements were made from 10 oocytes per treatment. For pH 5.5, 6.0, and 6.5, ND96 was buffered with 5 mM MES/Tris base. For pH 4.5, 5 mM Homo-Pipes was used as a buffer and 5 mM HEPES for uptake at pH 7.0.

For a further data set, the system named is PfCRT variant E207A. The data set is described as follows: Drug uptake assay, oocytes expressing E207A. Format: cell-based, Plasmodium falciparum. The conditions noted are these: for E207A transport activity pH 4.5 / E207A transport activity pH 6.0: 50 µM external drug, 1 h. Here is the method: Site-directed mutagenesis of PfCRT^Dd2 was performed as described using the megaprimer method with overlap extension[21],[54]. The primer pairs used are listed in Supplementary Table 6. Please note that a codon-optimized and oocyte-adapted version of PfCRT^Dd2 was used[22] (Supplementary Fig. 16). The resulting DNA fragment was cloned into the SP64T expression vector and verified by sequencing.
as §1
Drug uptake assays were performed as described previously[21],[22],[24],[34]. […] The direction of radio-labeled drug transport is here from the mostly acidic extracellular solution (pH 4.5 or 6.0, as indicated) into the oocyte cytosol (pH ∼ 7.2), which corresponds to the efflux of drug from the acidic digestive vacuole (pH 5.2) into the parasite cytoplasm (pH 7.2). The topology of PfCRT in the oolemma is such that both the N- and C-terminus face the extracellular milieu[3],[22]. In the parasite, the N- and C-terminus face the lumen of the digestive vacuole. […] For determination of the amount of drug uptake for each oocyte, the reaction medium was removed and the oocytes were washed three times with 2 ml of ice-cold ND96 buffer. Each oocyte was individually transferred to a scintillation vial containing 5% sodium dodecyl sulfate (200 μl) for lysis. […] Oocytes that were injected with water instead of RNA were analyzed in parallel, representing the uptake of a drug by diffusion and/or endogenous permeation pathways. The resulting value represents the “background“ level of drug accumulation in oocytes (in-depth discussion in[22]). The specific PfCRT-mediated uptake was determined by subtracting the corresponding background value measured in water-injected oocytes from that of PfCRT-expressing oocytes. In all cases, at least three separate experiments were performed on oocytes from different frogs (biological replicate), and for each condition in an experiment, measurements were made from 10 oocytes per treatment. For pH 5.5, 6.0, and 6.5, ND96 was buffered with 5 mM MES/Tris base.

The test system of data set [1] is CCN(CC)CCCC(C)Nc1ccnc2cc(Cl)ccc12. The data set is described as follows: Drug uptake assay, X. laevis oocytes expressing PfCRT^Dd2. It counts as cell-based, Plasmodium falciparum. As to conditions: 18.0 °C.
Experimental: Oocytes were obtained as described previously[24]. Briefly, adult (>2 years old) female X. laevis frogs (NASCO) were anesthetized in a cooled solution of ethyl 3-amino benzoate methanesulfonate (0.1%, w/v), followed by a surgical removal of parts of the ovary. The ovary lobes were carefully dissected and small pieces of oocytes were incubated in Ca^2+-free ND96 buffer (96 mM NaCl, 2 mM KCl, 1 mM MgCl2 buffered with 5 mM HEPES/NaOH, pH 7.5) supplemented with collagenase D (0.1%, w/v; Roche), BSA (0.5%, w/v), and 9 mm Na2HPO4 at 18 °C for 14-16 h while gentle shaking. After incubation, the oocytes were carefully washed several times with ND96 buffer (96 mM NaCl, 2 mM KCl, 1.8 mM CaCl2, 1 mM MgCl2 buffered with 5 mM HEPES/NaOH, pH 7.5) supplemented with 100 mg l^−1 gentamycin). Defolliculated and healthy-looking stage V-VI oocytes were manually selected for RNA microinjection. […]
Drug uptake assays were performed as described previously[21],[22],[24],[34]. […] Oocytes that were injected with water instead of RNA were analyzed in parallel, representing the uptake of a drug by diffusion and/or endogenous permeation pathways. […] The specific PfCRT-mediated uptake was determined by subtracting the corresponding background value measured in water-injected oocytes from that of PfCRT-expressing oocytes. […]
[2] abbreviates: CQ transport in the presence of verapamil, independent samples.

Usually Km stands for the concentration of substrate that gives half-maximal velocity.

Where “and” joins values, the source holds several entries; their conditions need not be identical. Equal entries are not always repeated.

Regarding `C=C[C@H]1C[N@@]2CC[C@H]1C[C@H]2[C@H](O)c1ccnc2ccc(OC)cc12` [QN, quinine], the “PfCRTDd2 transport activity pH 6.0” value on PfCRT^Dd2 is 6.11 pmol oocyte-1 h-1 and 5.59 pmol oocyte-1 h-1 and 5.35 pmol oocyte-1 h-1 and 4.57 pmol oocyte-1 h-1. In the data set with PfCRT variant E207A (independent samples), the “E207A transport activity pH 4.5” value was 1.81 pmol oocyte-1 h-1 and 1.79 pmol oocyte-1 h-1 and 2.22 pmol oocyte-1 h-1 and 1.30 pmol oocyte-1 h-1 and 1.76 pmol oocyte-1 h-1; the “E207A transport activity pH 6.0” value was 2.22 pmol oocyte-1 h-1 and 1.72 pmol oocyte-1 h-1 and 2.41 pmol oocyte-1 h-1 and 2.60 pmol oocyte-1 h-1.
Turning to `Clc1ccc2c(N3CCN(CCCN4CCN(c5ccnc6cc(Cl)ccc56)CC4)CC3)ccnc2c1` [PPQ, piperaquine], the “PfCRTDd2 transport activity pH 6.0” value at PfCRT^Dd2 is 28.14 pmol oocyte-1 h-1 and 21.87 pmol oocyte-1 h-1 and 30.01 pmol oocyte-1 h-1 and 33.33 pmol oocyte-1 h-1. In addition, in the data set with PfCRT variant E207A (independent samples), the “E207A transport activity pH 4.5” value was 9.66 pmol oocyte-1 h-1 and 9.12 pmol oocyte-1 h-1 and 9.57 pmol oocyte-1 h-1 and 5.62 pmol oocyte-1 h-1; the “E207A transport activity pH 6.0” value was 8.93 pmol oocyte-1 h-1 and 12.01 pmol oocyte-1 h-1 and 12.48 pmol oocyte-1 h-1 and 12.86 pmol oocyte-1 h-1.
As for `COc1ccc(CCN(C)CCCC(C#N)(c2ccc(OC)c(OC)c2)C(C)C)cc1OC` (stereo not drawn) [VP, verapamil], the “PfCRTDd2 CQ + VP transport activity pH 6.0” value at PfCRT^Dd2 (setting [2]) is 1.45 pmol oocyte-1 h-1 and 1.56 pmol oocyte-1 h-1 and 1.71 pmol oocyte-1 h-1 and 1.84 pmol oocyte-1 h-1. Further, the “effect on CQ transport by PfCRT^Dd2” value at PfCRT^Dd2 (pH 6.0, in words) is “blocked CQ transport”. The “E207A CQ + VP transport activity pH 6.0” value with PfCRT variant E207A (setting [2]) is 0.66 pmol oocyte-1 h-1 and 0.74 pmol oocyte-1 h-1 and 0.45 pmol oocyte-1 h-1. In addition, in the data set on PfCRT variant E207A (pH 6.0, in words), the “effect on CQ transport by E207A” value was “blocked CQ transport”.
With `CC[C@]1(O)C[C@@H]2CN(CCc3c([nH]c4ccccc34)[C@@](C(=O)OC)(c3cc4c(cc3OC)N(C)[C@H]3[C@@](O)(C(=O)OC)[C@H](OC(C)=O)[C@]5(CC)C=CCN6CC[C@]43[C@@H]65)C2)C1` [VNB, vinblastine], the “PfCRTDd2 transport activity pH 6.0” value at PfCRT^Dd2 is recorded as “n.u”. For the same molecule, the “transport of the drug by PfCRT^Dd2” value on PfCRT^Dd2 (pH 6.0, in words) was “Neither PfCRT^Dd2 nor E207A acted on”. Also, the “E207A transport activity pH 6.0” value with PfCRT variant E207A (independent samples) is recorded as “n.u”. In the data set on PfCRT variant E207A (pH 6.0, in words), the “transport of the drug by E207A” value is “Neither PfCRT^Dd2 nor E207A acted on”.
Regarding `CC[C@]1(O)C[C@H]2CN(CCc3c([nH]c4ccccc34)[C@@](C(=O)OC)(c3cc4c(cc3OC)N(C=O)[C@H]3[C@@](O)(C(=O)OC)[C@H](OC(C)=O)[C@]5(CC)C=CCN6CC[C@]43[C@@H]65)C2)C1` [VNC, vincristine], the “PfCRTDd2 transport activity pH 6.0” value on PfCRT^Dd2 is recorded as “n.u”. Moreover, the “transport of the drug by PfCRT^Dd2” value at PfCRT^Dd2 (pH 6.0, in words) is listed as “Neither PfCRT^Dd2 nor E207A acted on”. For the same molecule, in the data set on PfCRT variant E207A (independent samples), the “E207A transport activity pH 6.0” value is on record as “n.u”. For the same molecule, the “transport of the drug by E207A” value in the data set with PfCRT variant E207A (pH 6.0, in words) was “Neither PfCRT^Dd2 nor E207A acted on”.
Regarding “PfCRT^Dd2 (Plasmodium falciparum; A220S/I356T/K76T/M74I/N326S/N75E/Q271E/R371I)”, the Km in data set [1] (other: PfCRT^Dd2, pH 4.5, pH 4.5) was 200 ± 60 µM; in data set [1] (other: PfCRT^Dd2, pH 6.0, pH 6.0), 270 ± 50 µM.
On to `NC12CC3CC(CC(C3)C1)C2` [AMA, amantadine], for which, on PfCRT^Dd2, the “PfCRTDd2 transport activity pH 6.0” value was 3.96 pmol oocyte-1 h-1 and 5.23 pmol oocyte-1 h-1 and 3.48 pmol oocyte-1 h-1.
Consider `C=C[C@H]1C[N@@]2CC[C@H]1C[C@@H]2[C@@H](O)c1ccnc2ccc(OC)cc12` [QD, quinidine], for which the “PfCRTDd2 transport activity pH 6.0” value on PfCRT^Dd2 is 4.23 pmol oocyte-1 h-1 and 3.26 pmol oocyte-1 h-1 and 4.00 pmol oocyte-1 h-1 and 4.74 pmol oocyte-1 h-1 and 4.12 pmol oocyte-1 h-1 and 4.59 pmol oocyte-1 h-1. In the data set with PfCRT variant E207A (independent samples), the “E207A transport activity pH 4.5” value is 1.55 pmol oocyte-1 h-1 and 1.47 pmol oocyte-1 h-1 and 1.04 pmol oocyte-1 h-1 and 1.61 pmol oocyte-1 h-1; the “E207A transport activity pH 6.0” value is 2.30 pmol oocyte-1 h-1 and 2.18 pmol oocyte-1 h-1 and 1.61 pmol oocyte-1 h-1 and 1.77 pmol oocyte-1 h-1 and 2.20 pmol oocyte-1 h-1.
